# Assay results taken from patent US20220339143A1, “TAK-925 FOR USE IN TREATING NARCOLEPSY” (Takeda Pharmaceutical Company Limited, priority 2019, published 2022).
# System: patients with narcolepsy type 1 (NT1)
# Assay: Subjective daytime sleepiness as assessed by Karolinska Sleepiness Scale (KSS), single dose (Cohorts 5, 6, 7)
# Type: in vivo, human
# Procedure: Daytime sleepiness as assessed by the Karolinska Sleepiness Scale (KSS).
# Daytime sleepiness as assessed by KSS at predose and hourly until 11 hours after the start of infusion is presented in Table 13 as summary, in Table 14 as ANOVA and in Table 15 as ANOVA of change from baseline.
# [1] = Cmpd A 5 mg (N = 6), 9 hr after start of infusion
# [2] = Cmpd A 5 mg (N = 6), 10 hr after start of infusion
# [3] = Cmpd A 5 mg (N = 6), 11 hr after start of infusion
# [4] = Cmpd A 11.2 mg (N = 4), 1 hr after start of infusion
# [5] = Cmpd A 11.2 mg (N = 4), 2 hr after start of infusion
# [6] = Cmpd A 11.2 mg (N = 4), 3 hr after start of infusion
# [7] = Cmpd A 11.2 mg (N = 4), 4 hr after start of infusion
# [8] = Cmpd A 11.2 mg (N = 4), 5 hr after start of infusion
# [9] = Cmpd A 11.2 mg (N = 4), 6 hr after start of infusion
# [10] = Cmpd A 11.2 mg (N = 4), 7 hr after start of infusion
# [11] = Cmpd A 11.2 mg (N = 4), 8 hr after start of infusion
# [12] = Cmpd A 11.2 mg (N = 4), 9 hr after start of infusion
# [13] = Cmpd A 11.2 mg (N = 4), 10 hr after start of infusion
# [14] = Cmpd A 11.2 mg (N = 4), 11 hr after start of infusion
# [15] = Cmpd A 44.8 mg (N = 4), 1 hr after start of infusion
# [16] = Cmpd A 44.8 mg (N = 4), 2 hr after start of infusion
# [17] = Cmpd A 44.8 mg (N = 4), 3 hr after start of infusion
# [18] = Cmpd A 44.8 mg (N = 4), 4 hr after start of infusion
# [19] = Cmpd A 44.8 mg (N = 4), 5 hr after start of infusion
# [20] = Cmpd A 44.8 mg (N = 4), 6 hr after start of infusion
# [21] = Cmpd A 44.8 mg (N = 4), 7 hr after start of infusion
# [22] = Cmpd A 44.8 mg (N = 4), 8 hr after start of infusion
# [23] = Cmpd A 44.8 mg (N = 4), 9 hr after start of infusion
# [24] = Cmpd A 44.8 mg (N = 4), 10 hr after start of infusion
# [25] = Cmpd A 44.8 mg (N = 4), 11 hr after start of infusion
structure (smiles),measurement,setting,value
"COC(=O)N1CCC[C@H](NS(C)(=O)=O)[C@@H]1CO[C@H]1CC[C@@H](c2ccccc2)CC1 [Compound A, methyl (2R,3S)-3-((methylsulfonyl)amino)-2-(((cis-4-phenylcyclohexyl)oxy)methyl)piperidine-1-carboxylate]","KSS Observed Value at Visit, Median","Cmpd A 5 mg (N = 6), 8 hr after start of infusion",3.0
same,"KSS Change from Baseline, Mean",[1],−2.5
same,"KSS Change from Baseline, Median",[1],−2.5
same,"KSS Observed Value at Visit, Mean",[1],2.5
same,"KSS Observed Value at Visit, Median",[1],2.5
same,"KSS Change from Baseline, Mean",[2],−2.3
same,"KSS Change from Baseline, Median",[2],−2.5
same,"KSS Observed Value at Visit, Mean",[2],2.7
same,"KSS Observed Value at Visit, Median",[2],2.0
same,"KSS Change from Baseline, Mean",[3],−1.7
same,"KSS Change from Baseline, Median",[3],−1.5
same,"KSS Observed Value at Visit, Mean",[3],3.3
same,"KSS Observed Value at Visit, Median",[3],3.0
same,"KSS Change from Baseline, Mean",[4],−2.0
same,"KSS Change from Baseline, Median",[4],−1.0
same,"KSS Observed Value at Visit, Mean",[4],1.8
same,"KSS Observed Value at Visit, Median",[4],1.5
same,"KSS Change from Baseline, Mean",[5],−1.5
same,"KSS Change from Baseline, Median",[5],−1.0
same,"KSS Observed Value at Visit, Mean",[5],2.3
same,"KSS Observed Value at Visit, Median",[5],2.0
same,"KSS Change from Baseline, Mean",[6],−1.3
same,"KSS Change from Baseline, Median",[6],−1.0
same,"KSS Observed Value at Visit, Mean",[6],2.5
same,"KSS Observed Value at Visit, Median",[6],3.0
same,"KSS Change from Baseline, Mean",[7],−1.8
same,"KSS Change from Baseline, Median",[7],−1.0
same,"KSS Observed Value at Visit, Mean",[7],2.0
same,"KSS Observed Value at Visit, Median",[7],2.0
same,"KSS Change from Baseline, Mean",[8],−1.8
same,"KSS Change from Baseline, Median",[8],−1.0
same,"KSS Observed Value at Visit, Mean",[8],2.0
same,"KSS Observed Value at Visit, Median",[8],2.0
same,"KSS Change from Baseline, Mean",[9],−1.5
same,"KSS Change from Baseline, Median",[9],−0.5
same,"KSS Observed Value at Visit, Mean",[9],2.3
same,"KSS Observed Value at Visit, Median",[9],2.0
same,"KSS Change from Baseline, Mean",[10],−1.0
same,"KSS Change from Baseline, Median",[10],−0.5
same,"KSS Observed Value at Visit, Mean",[10],2.8
same,"KSS Observed Value at Visit, Median",[10],3.0
same,"KSS Change from Baseline, Mean",[11],−1.5
same,"KSS Change from Baseline, Median",[11],−1.0
same,"KSS Observed Value at Visit, Mean",[11],2.3
same,"KSS Observed Value at Visit, Median",[11],2.5
same,"KSS Change from Baseline, Mean",[12],−1.3
same,"KSS Change from Baseline, Median",[12],−0.5
same,"KSS Observed Value at Visit, Mean",[12],2.5
same,"KSS Observed Value at Visit, Median",[12],2.5
same,"KSS Change from Baseline, Mean",[13],1.3
same,"KSS Change from Baseline, Median",[13],2.5
same,"KSS Observed Value at Visit, Mean",[13],5.0
same,"KSS Observed Value at Visit, Median",[13],5.5
same,"KSS Change from Baseline, Mean",[14],0.5
same,"KSS Change from Baseline, Median",[14],1.0
same,"KSS Observed Value at Visit, Mean",[14],4.3
same,"KSS Observed Value at Visit, Median",[14],4.0
same,"KSS Change from Baseline, Mean",[15],−1.5
same,"KSS Change from Baseline, Median",[15],−1.5
same,"KSS Observed Value at Visit, Mean",[15],1.3
same,"KSS Observed Value at Visit, Median",[15],1.0
same,"KSS Change from Baseline, Mean",[16],−1.5
same,"KSS Change from Baseline, Median",[16],−2.0
same,"KSS Observed Value at Visit, Mean",[16],1.3
same,"KSS Observed Value at Visit, Median",[16],1.0
same,"KSS Change from Baseline, Mean",[17],−1.0
same,"KSS Change from Baseline, Median",[17],−1.0
same,"KSS Observed Value at Visit, Mean",[17],1.8
same,"KSS Observed Value at Visit, Median",[17],1.5
same,"KSS Change from Baseline, Mean",[18],−1.0
same,"KSS Change from Baseline, Median",[18],−1.0
same,"KSS Observed Value at Visit, Mean",[18],1.8
same,"KSS Observed Value at Visit, Median",[18],1.5
same,"KSS Change from Baseline, Mean",[19],−1.5
same,"KSS Change from Baseline, Median",[19],−1.5
same,"KSS Observed Value at Visit, Mean",[19],1.3
same,"KSS Observed Value at Visit, Median",[19],1.0
same,"KSS Change from Baseline, Mean",[20],−1.3
same,"KSS Change from Baseline, Median",[20],−1.0
same,"KSS Observed Value at Visit, Mean",[20],1.5
same,"KSS Observed Value at Visit, Median",[20],1.5
same,"KSS Change from Baseline, Mean",[21],−1.3
same,"KSS Change from Baseline, Median",[21],−1.0
same,"KSS Observed Value at Visit, Mean",[21],1.5
same,"KSS Observed Value at Visit, Median",[21],1.5
same,"KSS Change from Baseline, Mean",[22],−0.8
same,"KSS Change from Baseline, Median",[22],−1.0
same,"KSS Observed Value at Visit, Mean",[22],2.0
same,"KSS Observed Value at Visit, Median",[22],2.0
same,"KSS Change from Baseline, Mean",[23],−1.3
same,"KSS Change from Baseline, Median",[23],−1.0
same,"KSS Observed Value at Visit, Mean",[23],1.5
same,"KSS Observed Value at Visit, Median",[23],1.0
same,"KSS Change from Baseline, Mean",[24],−1.5
same,"KSS Change from Baseline, Median",[24],−1.5
same,"KSS Observed Value at Visit, Mean",[24],1.3
same,"KSS Observed Value at Visit, Median",[24],1.0
same,"KSS Change from Baseline, Mean",[25],−1.3
same,"KSS Change from Baseline, Median",[25],−1.0
same,"KSS Observed Value at Visit, Mean",[25],1.5
same,"KSS Observed Value at Visit, Median",[25],1.5
same,KSS ratings vs pooled placebo group,all time points over 9 hour infusion period,lower (greater alertness)
same,mean reduction in KSS from baseline vs placebo,"single dose, NT1",greater for Compound A vs placebo
